In the test the target is T1, SAE (Homo sapiens, UniProt Q9UBT2).
T1 construct: endogenous in cells; host or cells: HCT116
T1 sequence (Q9UBT2 1-640): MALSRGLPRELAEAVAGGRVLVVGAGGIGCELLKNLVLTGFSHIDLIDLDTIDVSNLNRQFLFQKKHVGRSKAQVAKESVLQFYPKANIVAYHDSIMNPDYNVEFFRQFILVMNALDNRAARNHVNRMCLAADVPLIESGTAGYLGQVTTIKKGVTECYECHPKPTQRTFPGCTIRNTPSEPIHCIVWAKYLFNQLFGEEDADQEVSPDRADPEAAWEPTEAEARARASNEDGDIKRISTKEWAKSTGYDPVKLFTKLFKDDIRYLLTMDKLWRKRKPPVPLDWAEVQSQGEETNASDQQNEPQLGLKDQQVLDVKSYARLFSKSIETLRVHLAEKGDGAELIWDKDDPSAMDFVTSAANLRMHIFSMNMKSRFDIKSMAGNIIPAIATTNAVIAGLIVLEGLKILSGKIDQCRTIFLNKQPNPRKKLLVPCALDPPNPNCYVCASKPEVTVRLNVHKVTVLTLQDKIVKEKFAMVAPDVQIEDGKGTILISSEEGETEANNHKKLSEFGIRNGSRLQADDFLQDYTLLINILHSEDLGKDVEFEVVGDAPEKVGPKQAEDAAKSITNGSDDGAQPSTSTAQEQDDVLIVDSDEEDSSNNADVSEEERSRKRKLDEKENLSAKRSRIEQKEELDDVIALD
T1 sequence (Q9UBE0 1-346): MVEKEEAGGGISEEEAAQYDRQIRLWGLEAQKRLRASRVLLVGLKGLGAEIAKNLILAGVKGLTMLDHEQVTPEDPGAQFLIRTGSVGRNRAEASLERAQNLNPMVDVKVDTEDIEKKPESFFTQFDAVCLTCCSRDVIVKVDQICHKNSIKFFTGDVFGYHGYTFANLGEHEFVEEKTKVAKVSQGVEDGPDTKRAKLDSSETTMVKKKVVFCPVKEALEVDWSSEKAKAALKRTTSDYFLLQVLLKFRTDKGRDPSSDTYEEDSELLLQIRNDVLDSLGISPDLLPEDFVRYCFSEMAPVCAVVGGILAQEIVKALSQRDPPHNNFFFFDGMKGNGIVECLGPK
The experiment in a line: SUMO IF: in vitro inhibitory activity assay against SAE in HCT116 cells (SUMO-2/3 immunofluorescence). In kind it is cell-based. Conditions: 6 h at 37° C. The gist of the method: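 SUMO-2/3 immunofluorescence (18H8 primary 1:400, FITC secondary 1:300) was read after 6 h compound exposure of HCT116 cells at 37 °C. Inhibition rate and IC50 derive from signal relative to DMSO-treated wells.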

The IC50 is the concentration that inhibits the measured activity by half. The low end stands for greater potency, the high end for weaker potency.

For `NS(=O)(=O)OC[C@H]1[C@H](F)[C@@H](Nc2ncncc2C(=O)c2cc3c(s2)COC[C@]32NCCc3cc(F)c(Cl)cc32)C[C@@H]1O` [Compound 572], under “class symbols”, the IC50 lay in the range of 50 to 200 nM. On the same count and under the same terms, the figure for `NS(=O)(=O)OC[C@H]1[C@H](F)[C@@H](Nc2ncncc2C(=O)c2cc3c(s2)COCC32NCCc3c(F)cc(Cl)cc32)C[C@@H]1O` (stereo partly drawn) [Compound 573] is 50 to 200 nM; for `NS(=O)(=O)OC[C@H]1[C@H](F)[C@@H](Nc2ncncc2C(=O)c2cc3c(s2)COC[C@@]32NCCc3c(F)cc(Cl)cc32)C[C@@H]1O` [Compound 574] it is over 200 nM; for `NS(=O)(=O)OC[C@H]1[C@H](F)[C@@H](Nc2ncncc2C(=O)c2cc3c(s2)COC[C@]32NCCc3c(F)cc(Cl)cc32)C[C@@H]1O` [Compound 575] it is 50 to 200 nM. For the compound `CN1Cc2sc(C(=O)c3cncnc3N[C@H]3C[C@H](O)[C@@H](COS(N)(=O)=O)[C@@H]3F)cc2C2(C1)NCCc1ccc(Cl)cc12` (stereo partly drawn) [Compound 576], the IC50 (class symbols) was at most 50 nM.

For the setting “numeric values”, `CN1Cc2sc(C(=O)c3cncnc3N[C@H]3C[C@H](O)[C@@H](COS(N)(=O)=O)[C@@H]3F)cc2[C@@]2(C1)NCCc1ccc(Cl)cc12` [Compound 577] came in with an IC50 of over 1000 nM. Still for that read-out and setting: the same measure for `CN1Cc2sc(C(=O)c3cncnc3N[C@H]3C[C@H](O)[C@@H](COS(N)(=O)=O)[C@@H]3F)cc2[C@]2(C1)NCCc1ccc(Cl)cc12` [Compound 578]: 29.2 nM.

As for `NS(=O)(=O)OC[C@H]1[C@H](F)[C@@H](Nc2ncncc2C(=O)c2cc3c(s2)CN(C2CC2)CC32NCCc3ccc(Cl)cc32)C[C@@H]1O` (stereo partly drawn) [Compound 579], the IC50 (class symbols) is at most 50 nM. In turn, `NS(=O)(=O)OC[C@H]1[C@H](F)[C@@H](Nc2ncncc2C(=O)c2cc3c(s2)CN(C2CC2)C[C@@]32NCCc3ccc(Cl)cc32)C[C@@H]1O` [Compound 580] displayed an IC50 (numeric values) of over 1000 nM. Same read-out and setting: the same measure for `NS(=O)(=O)OC[C@H]1[C@H](F)[C@@H](Nc2ncncc2C(=O)c2cc3c(s2)CN(C2CC2)C[C@]32NCCc3ccc(Cl)cc32)C[C@@H]1O` [Compound 581]: 23.8 nM. In the case of `NS(=O)(=O)OC[C@H]1[C@H](F)[C@@H](Nc2ncncc2C(=O)c2cc3c(s2)CNCC32NCCc3ccc(Cl)cc32)C[C@@H]1O` (stereo partly drawn) [Compound 582], where the note is “class symbols”, the IC50 lay within 50 to 200 nM. Take `NS(=O)(=O)OC[C@H]1[C@H](F)[C@@H](Nc2ncncc2C(=O)c2cc3c(s2)CNC[C@@]32NCCc3ccc(Cl)cc32)C[C@@H]1O` [Compound 583]: where the note is “class symbols”, the concentration for half-maximal inhibition (IC50) is over 200 nM. As to `NS(=O)(=O)OC[C@H]1[C@H](F)[C@@H](Nc2ncncc2C(=O)c2cc3c(s2)CNC[C@]32NCCc3ccc(Cl)cc32)C[C@@H]1O` [Compound 584], the half-maximal inhibitory concentration (IC50) (class symbols) is 50 to 200 nM. In turn, `NS(=O)(=O)OC[C@H]1[C@H](F)[C@@H](Nc2ncncc2C(=O)c2nc3c(s2)CCCC32NCCc3ccc(Cl)cc32)C[C@@H]1O` (stereo partly drawn) [Compound 585] gave a half-maximal inhibitory concentration (IC50) (class symbols) of over 200 nM. The same measure, in the same setting: the figure for `NS(=O)(=O)OC[C@H]1[C@H](F)[C@@H](Nc2ncncc2C(=O)c2nc3c(s2)CCC[C@@]32NCCc3ccc(Cl)cc32)C[C@@H]1O` [Compound 586] is over 200 nM; for `NS(=O)(=O)OC[C@H]1[C@H](F)[C@@H](Nc2ncncc2C(=O)c2nc3c(s2)CCC[C@]32NCCc3ccc(Cl)cc32)C[C@@H]1O` [Compound 587] it is 50 to 200 nM.

For the compound `NS(=O)(=O)OC[C@H]1[C@H](F)[C@@H](Nc2ncncc2C(=O)c2nc3c(s2)COCC32NCCc3ccc(Cl)cc32)C[C@@H]1O` (stereo partly drawn) [Compound 588], the IC50 (class symbols) was over 200 nM. `NS(=O)(=O)OC[C@H]1[C@H](F)[C@@H](Nc2ncncc2C(=O)c2nc3c(s2)COC[C@@]32NCCc3ccc(Cl)cc32)C[C@@H]1O` [Compound 589]: the IC50 (class symbols) is over 200 nM.

Where the note is “class symbols”, `NS(=O)(=O)OC[C@H]1[C@H](F)[C@@H](Nc2ncncc2C(=O)c2nc3c(s2)COC[C@]32NCCc3ccc(Cl)cc32)C[C@@H]1O` [Compound 590] showed an IC50 of over 200 nM. Compound `NS(=O)(=O)OC[C@H]1[C@H](F)[C@@H](Nc2ncncc2C(=O)c2nc3c(s2)CSCC32NCCc3ccc(Cl)cc32)C[C@@H]1O` (stereo partly drawn) [Compound 591] yielded an IC50 (class symbols) of over 200 nM. Still for that read-out and setting: the figure for `NS(=O)(=O)OC[C@H]1[C@H](F)[C@@H](Nc2ncncc2C(=O)c2nc3c(s2)CSC[C@@]32NCCc3ccc(Cl)cc32)C[C@@H]1O` [Compound 592] is over 200 nM; for `NS(=O)(=O)OC[C@H]1[C@H](F)[C@@H](Nc2ncncc2C(=O)c2nc3c(s2)CSC[C@]32NCCc3ccc(Cl)cc32)C[C@@H]1O` [Compound 593] it is 50 to 200 nM. For the setting “class symbols”, `CN1CCc2ccc(Cl)cc2C12CCCc1sc(C(=O)c3cncnc3N[C@H]3C[C@H](O)[C@@H](COS(N)(=O)=O)[C@@H]3F)cc12` (stereo partly drawn) [Compound 594] registered a 50% inhibitory concentration (IC50) of 50 to 200 nM.

For the setting “class symbols”, `CN1CCc2ccc(Cl)cc2[C@]12CCCc1sc(C(=O)c3cncnc3N[C@H]3C[C@H](O)[C@@H](COS(N)(=O)=O)[C@@H]3F)cc12` [Compound 595] returned a concentration for half-maximal inhibition (IC50) of over 200 nM. On the same count and under the same terms, the figure for `CN1CCc2ccc(Cl)cc2[C@@]12CCCc1sc(C(=O)c3cncnc3N[C@H]3C[C@H](O)[C@@H](COS(N)(=O)=O)[C@@H]3F)cc12` [Compound 596] is 50 to 200 nM; for `NS(=O)(=O)OC[C@H]1[C@H](F)[C@@H](Nc2ncncc2C(=O)c2cc3c(s2)CCCC32NCCc3cnc(Cl)cc32)C[C@@H]1O` (stereo partly drawn) [Compound 597] it is 50 to 200 nM. On the same count and under the same terms, the same measure for `NS(=O)(=O)OC[C@H]1[C@H](F)[C@@H](Nc2ncncc2C(=O)c2cc3c(s2)CCC[C@@]32NCCc3cnc(Cl)cc32)C[C@@H]1O` [Compound 598]: over 200 nM. Still for that read-out and setting: the same measure for `NS(=O)(=O)OC[C@H]1[C@H](F)[C@@H](Nc2ncncc2C(=O)c2cc3c(s2)CCC[C@]32NCCc3cnc(Cl)cc32)C[C@@H]1O` [Compound 599]: at most 50 nM. As to `NS(=O)(=O)OC[C@H]1[C@H](F)[C@@H](Nc2ncncc2C(=O)c2cc3c(s2)CCCC32NCCc3ccc(Cl)nc32)C[C@@H]1O` (stereo partly drawn) [Compound 600], the 50% inhibitory concentration (IC50) (class symbols) was at most 50 nM. On the same count and under the same terms, the same measure for `NS(=O)(=O)OC[C@H]1[C@H](F)[C@@H](Nc2ncncc2C(=O)c2cc3c(s2)CCC[C@@]32NCCc3ccc(Cl)nc32)C[C@@H]1O` [Compound 601]: over 200 nM; for `NS(=O)(=O)OC[C@H]1[C@H](F)[C@@H](Nc2ncncc2C(=O)c2cc3c(s2)CCC[C@]32NCCc3ccc(Cl)nc32)C[C@@H]1O` [Compound 602]: at most 50 nM. In turn, `NS(=O)(=O)OC[C@H]1[C@H](F)[C@@H](Nc2ncncc2C(=O)c2cc3c(s2)CCCC32NCCc3ncc(Cl)cc32)C[C@@H]1O` (stereo partly drawn) [Compound 603] displayed an IC50 (class symbols) of 50 to 200 nM. On to `NS(=O)(=O)OC[C@H]1[C@H](F)[C@@H](Nc2ncncc2C(=O)c2cc3c(s2)CCC[C@@]32NCCc3ncc(Cl)cc32)C[C@@H]1O` [Compound 604], for which the 50% inhibitory concentration (IC50) (class symbols) was over 200 nM. Still for that read-out and setting: the figure for `NS(=O)(=O)OC[C@H]1[C@H](F)[C@@H](Nc2ncncc2C(=O)c2cc3c(s2)CCC[C@]32NCCc3ncc(Cl)cc32)C[C@@H]1O` [Compound 605] is at most 50 nM; for `NS(=O)(=O)OC[C@H]1[C@H](F)[C@@H](Nc2ncncc2C(=O)c2cc3c(s2)CSCC32NCCc3cnc(Cl)cc32)C[C@@H]1O` (stereo partly drawn) [Compound 606] it is 50 to 200 nM; for `NS(=O)(=O)OC[C@H]1[C@H](F)[C@@H](Nc2ncncc2C(=O)c2cc3c(s2)CSC[C@@]32NCCc3cnc(Cl)cc32)C[C@@H]1O` [Compound 607] it is over 200 nM.

As for `NS(=O)(=O)OC[C@H]1[C@H](F)[C@@H](Nc2ncncc2C(=O)c2cc3c(s2)CSC[C@]32NCCc3cnc(Cl)cc32)C[C@@H]1O` [Compound 608], the IC50 (class symbols) was at most 50 nM. Same read-out and setting: the figure for `NS(=O)(=O)OC[C@H]1[C@H](F)[C@@H](Nc2ncncc2C(=O)c2cc3c(s2)CSCC32NCCc3ccc(Cl)nc32)C[C@@H]1O` (stereo partly drawn) [Compound 609] is 50 to 200 nM; for `NS(=O)(=O)OC[C@H]1[C@H](F)[C@@H](Nc2ncncc2C(=O)c2cc3c(s2)CSC[C@@]32NCCc3ccc(Cl)nc32)C[C@@H]1O` [Compound 610] it is over 200 nM. The same measure, in the same setting: the same measure for `NS(=O)(=O)OC[C@H]1[C@H](F)[C@@H](Nc2ncncc2C(=O)c2cc3c(s2)CSC[C@]32NCCc3ccc(Cl)nc32)C[C@@H]1O` [Compound 611]: at most 50 nM; for `NS(=O)(=O)OC[C@H]1[C@H](F)[C@@H](Nc2ncncc2C(=O)c2cc3c(s2)CSCC32NCCc3ncc(Cl)cc32)C[C@@H]1O` (stereo partly drawn) [Compound 612]: 50 to 200 nM. Consider `NS(=O)(=O)OC[C@H]1[C@H](F)[C@@H](Nc2ncncc2C(=O)c2cc3c(s2)CSC[C@@]32NCCc3ncc(Cl)cc32)C[C@@H]1O` [Compound 613], for which the IC50 (class symbols) was over 200 nM.

The record behind these values is patent publication US20260297109A1, “COMPOUNDS AS SUMO ACTIVATING ENZYME INHIBITORS” (WIGEN BIOMEDICINE TECHNOLOGY (SHANGHAI) CO., LTD., priority 2022, published 2026).
